According to PubChem BioAssay AID2060885 (Molecular Pharmacology Branch, DTP, NCI, 2025):

System: NCI-H23 complex spheroids with HUVEC/MSC, viability
Assay: Anticancer human tumor NCI-H23 cell line growth inhibition [RAS];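 further: spheroids exposed to compound for 7 days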;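 on viability, T/C: 100% = DMSO vehicle control viability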
Details: for IC50: curve of first compound; for viability, T/C: stronger effect = lower value
Summary of the method: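 Multi-cell-type spheroids: tumor cells plus HUVEC endothelial cells and mesenchymal stem cells. RAS-pathway inhibitors were combined with targeted agents, each dosed in half-log steps down from clinical Cmax, or from 10 microM when Cmax was unknown.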

[1] = second compound 0.00316 µM, first compound 0.0316 µM
[2] = second compound 0.00316 µM, first compound 0.1 µM
[3] = second compound 0.00316 µM, first compound 0.316 µM
[4] = second compound 0.00316 µM, first compound 1 µM
[5] = second compound 0.00316 µM, first compound 3.16 µM
[6] = second compound 0.00316 µM, first compound 10 µM
[7] = second compound 0.01 µM, first compound 0.0316 µM
[8] = second compound 0.01 µM, first compound 0.1 µM
[9] = second compound 0.01 µM, first compound 0.316 µM
[10] = second compound 0.01 µM, first compound 1 µM
[11] = second compound 0.01 µM, first compound 3.16 µM
[12] = second compound 0.01 µM, first compound 10 µM
[13] = second compound 0.0316 µM, first compound 0.0316 µM
[14] = second compound 0.0316 µM, first compound 0.1 µM
[15] = second compound 0.0316 µM, first compound 0.316 µM
[16] = second compound 0.0316 µM, first compound 1 µM
[17] = second compound 0.0316 µM, first compound 3.16 µM
[18] = second compound 0.0316 µM, first compound 10 µM
[19] = second compound 0.1 µM, first compound 0.0316 µM
[20] = second compound 0.1 µM, first compound 0.1 µM
[21] = second compound 0.1 µM, first compound 0.316 µM
[22] = second compound 0.1 µM, first compound 1 µM
[23] = second compound 0.1 µM, first compound 3.16 µM
[24] = second compound 0.1 µM, first compound 10 µM
[25] = second compound 0.316 µM, first compound 0.0316 µM
[26] = second compound 0.316 µM, first compound 0.1 µM
[27] = second compound 0.316 µM, first compound 0.316 µM
[28] = second compound 0.316 µM, first compound 1 µM
[29] = second compound 0.316 µM, first compound 3.16 µM
[30] = second compound 0.316 µM, first compound 10 µM
[31] = second compound 1 µM, first compound 0.0316 µM
[32] = second compound 1 µM, first compound 0.1 µM
[33] = second compound 1 µM, first compound 0.316 µM
[34] = second compound 1 µM, first compound 1 µM
[35] = second compound 1 µM, first compound 3.16 µM
[36] = second compound 1 µM, first compound 10 µM

For CC(Nc1ccc2c(c1)OCCn1cc(N3C(=O)OCC3C(F)F)nc1-2)C(N)=O (stereo unspecified) + C=CC(=O)N1CCN(c2nc(OCC3CCCN3C)nc3c(F)c(-c4nc(N)cc(C)c4C(F)(F)F)c(Cl)cc23)C(C)C1, the IC50 (second compound 0.00316 µM) was 0.142 µM, the IC50 (second compound 0.01 µM) was less than 0.0316 µM and the IC50 (second compound 0.0316 µM) was less than 0.0316 µM. For the same compound, the IC50 (second compound 0.1 µM) was less than 0.0316 µM, the IC50 (second compound 0.316 µM) was less than 0.0316 µM and the IC50 (second compound 1 µM) was less than 0.0316 µM. For the same compound, the viability, T/C [1] was 51.2%, the viability, T/C [2] was 60.2% and the viability, T/C [3] was 34.6%. For the same compound, the viability, T/C [4] was 39.1%, the viability, T/C [5] was 35.8% and the viability, T/C [6] was 38.3%. It also gave a viability, T/C [7] of 43.8%, a viability, T/C [8] of 40.7% and a viability, T/C [9] of 35.9%. For the same compound, the viability, T/C [10] was 28.7%, the viability, T/C [11] was 31% and the viability, T/C [12] was 26.5%. For the same compound, the viability, T/C [13] was 36.4%, the viability, T/C [14] was 35.5% and the viability, T/C [15] was 27.2%. The viability, T/C [16] was 27.3%, the viability, T/C [17] was 24.8% and the viability, T/C [18] was 23.3%. The viability, T/C [19] was 31.4%, the viability, T/C [20] was 29.3% and the viability, T/C [21] was 26.4%. The viability, T/C [22] was 27.6%, the viability, T/C [23] was 22.9% and the viability, T/C [24] was 22.4%. The viability, T/C [25] was 28.7%, the viability, T/C [26] was 31.2% and the viability, T/C [27] was 30%. It also gave a viability, T/C [28] of 23.7%, a viability, T/C [29] of 25.9% and a viability, T/C [30] of 24.3%. For the same compound, the viability, T/C [31] was 33%, the viability, T/C [32] was 33.5% and the viability, T/C [33] was 28.8%. The viability, T/C [34] was 22.5%, the viability, T/C [35] was 27.8% and the viability, T/C [36] was 25%.
C[C@@H](NC(=O)c1ncnc(N)c1Cl)c1ncc(C(=O)Nc2cc(C(F)(F)F)c(Cl)cn2)s1 + C=CC(=O)N1CCN(c2nc(OCC3CCCN3C)nc3c(F)c(-c4nc(N)cc(C)c4C(F)(F)F)c(Cl)cc23)C(C)C1 showed an IC50 (second compound 0.00316 µM) greater than 10 µM, an IC50 (second compound 0.01 µM) of 0.201 µM and an IC50 (second compound 0.0316 µM) of less than 0.0316 µM. For the same compound, the IC50 (second compound 0.1 µM) was less than 0.0316 µM, the IC50 (second compound 0.316 µM) was less than 0.0316 µM and the IC50 (second compound 1 µM) was less than 0.0316 µM. The viability, T/C [1] was 72.2%, the viability, T/C [2] was 79.4% and the viability, T/C [3] was 61.5%. The viability, T/C [4] was 63.1%, the viability, T/C [5] was 63.2% and the viability, T/C [6] was 59.6%. It also gave a viability, T/C [7] of 60.9%, a viability, T/C [8] of 53.3% and a viability, T/C [9] of 47.8%. The viability, T/C [10] was 44.7%, the viability, T/C [11] was 45.8% and the viability, T/C [12] was 52.4%. It also gave a viability, T/C [13] of 43.6%, a viability, T/C [14] of 49% and a viability, T/C [15] of 38.9%. It also gave a viability, T/C [16] of 38.6%, a viability, T/C [17] of 42% and a viability, T/C [18] of 40.4%. The viability, T/C [19] was 43.3%, the viability, T/C [20] was 46.5% and the viability, T/C [21] was 36.2%. It also gave a viability, T/C [22] of 42.2%, a viability, T/C [23] of 45.9% and a viability, T/C [24] of 39.1%. The viability, T/C [25] was 42.1%, the viability, T/C [26] was 37.3% and the viability, T/C [27] was 40.8%. The viability, T/C [28] was 40.6%, the viability, T/C [29] was 42.7% and the viability, T/C [30] was 41%. The viability, T/C [31] was 36.4%, the viability, T/C [32] was 44.4% and the viability, T/C [33] was 45.4%. The viability, T/C [34] was 42%, the viability, T/C [35] was 43.6% and the viability, T/C [36] was 40.5%.
O=C(c1ccc(F)c(F)c1Nc1ccc(I)cc1F)N1CC(O)([C@@H]2CCCCN2)C1 + C=CC(=O)N1CCN(c2nc(OCC3CCCN3C)nc3c(F)c(-c4nc(N)cc(C)c4C(F)(F)F)c(Cl)cc23)C(C)C1 was tested, and the IC50 (second compound 0.00316 µM) was 0.0435 µM, the IC50 (second compound 0.01 µM) was 0.00449 µM and the IC50 (second compound 0.0316 µM) was less than 0.00316 µM. The IC50 (second compound 0.1 µM) was less than 0.00316 µM, the IC50 (second compound 0.316 µM) was less than 0.00316 µM and the IC50 (second compound 1 µM) was less than 0.00316 µM. For the same compound, the viability, T/C (second compound 0.00316 µM, first compound 0.00316 µM) was 58.7%, the viability, T/C (second compound 0.00316 µM, first compound 0.01 µM) was 61% and the viability, T/C [1] was 52.9%. It also gave a viability, T/C [2] of 40.7%, a viability, T/C [3] of 29.3% and a viability, T/C [4] of 16.8%. For the same compound, the viability, T/C (second compound 0.01 µM, first compound 0.00316 µM) was 50.9%, the viability, T/C (second compound 0.01 µM, first compound 0.01 µM) was 50.1% and the viability, T/C [7] was 41.1%. For the same compound, the viability, T/C [8] was 40%, the viability, T/C [9] was 28.6% and the viability, T/C [10] was 14.9%. For the same compound, the viability, T/C (second compound 0.0316 µM, first compound 0.00316 µM) was 44.7%, the viability, T/C (second compound 0.0316 µM, first compound 0.01 µM) was 48.9% and the viability, T/C [13] was 37.2%. It also gave a viability, T/C [14] of 32.4%, a viability, T/C [15] of 24% and a viability, T/C [16] of 11.8%. The viability, T/C (second compound 0.1 µM, first compound 0.00316 µM) was 37.1%, the viability, T/C (second compound 0.1 µM, first compound 0.01 µM) was 40.2% and the viability, T/C [19] was 33.3%. It also gave a viability, T/C [20] of 28.9%, a viability, T/C [21] of 24% and a viability, T/C [22] of 13.4%. For the same compound, the viability, T/C (second compound 0.316 µM, first compound 0.00316 µM) was 40%, the viability, T/C (second compound 0.316 µM, first compound 0.01 µM) was 37.5% and the viability, T/C [25] was 30.6%. For the same compound, the viability, T/C [26] was 28%, the viability, T/C [27] was 21.2% and the viability, T/C [28] was 13.7%. It also gave a viability, T/C (second compound 1 µM, first compound 0.00316 µM) of 39%, a viability, T/C (second compound 1 µM, first compound 0.01 µM) of 38.4% and a viability, T/C [31] of 31.4%. The viability, T/C [32] was 32.7%, the viability, T/C [33] was 24.2% and the viability, T/C [34] was 12.6%.
